Measurements: patent US9732088B2, “C2-carbocyclic iminothiazine dioxides as BACE inhibitors, compositions, and their use” (Merck Sharp & Dohme Corp., priority 2014, dated 2017)

How the values were obtained:
HepG2 cells = assay: In Vitro Phospholipidosis Assay; assay type: cell-based; conditions: 20 μM, 24 hours, normalized to DMSO
Description: [formula] Assay 7: In Vitro Phospholipidosis Assay
Drug-induced phospholipidosis (PL) is characterized by intracellular accumulation of phospholipids with lamellular bodies, and may result from impaired phospholipid metabolism in the lysosome (Anderson et al., 2006, FEBS Letter, 580, 5533-5540), and many compounds known to cause drug-induced PL are also associated with adverse drug reactions. Using a method described in the literature (Bhandari et al., 2008, Assay and Drug Dev. Tech., 6(3), 407-419), an in vitro cellular assay can provide data that can determine the PL potential of test compounds. In this assay, compounds that lower values for mean inclusion count of a fluorescent phospholipid (described below) versus control are associated with reduced potential for PL.
HepG2 cells were dispensed into 96-well collagen I coated plates at an initial density of 2.0×10^5 cells in 200 μL complete culturing medium (MEM Media w/Earle's Balanced Salt Solution supplemented with 10 IU penicillin, 10 μg/mL streptomycin, and 10% heat inactivated fetal bovine serum). Cells were incubated overnight at 37° C. with 5% CO2, 89% humidity prior to treatment.
A solution of fluorescently labeled phospholipid N-(7-nitrobenz-2-oxa-1,3-diazol-4-yl)-1,2-dihexadecanoyl-sn-glycero-3-phosphoethanolamine (NBD-PE) was prepared at a concentration of 10 mM in absolute ethanol. Dissolution of the NBD-PE was facilitated by sonication in a room temperature water bath for 30 minutes. NBD-PE medium was prepared by diluting NBD-PE stock to a final concentration of 50 μM in complete culturing medium, filtering (pore size, 0.22 μm) prior to use.
Compound treatment stocks were prepared in dimethyl sulfoxide at 500× final concentrations. Working treatment solutions were prepared by diluting compound stocks into NBD-PE medium with DMSO serving as the vehicle control. Treatment concentration was 20 μM. Amiodarone ((2-{4-[(2-butyl-1-benzofuran-3-yl)carbonyl]-2,6-diiodophenoxy}ethyl)diethylamine) served as the assay positive control at the same concentration. All treatments were tested in triplicate for 24 hours.
Following treatment, cultures were rinsed once with Hank's Balanced Salt Solution (HBSS) containing no phenol red. Cultures were then incubated for 30 minutes at 37° C. with […] Hoechst 33342 nuclear stain and […] cell tracker orange cytoplasm stain. After incubation, cells were rinsed once with HBSS and then fixed in 2% formalin solution.
Cultures were imaged using the IN Cell Analyzer 2000 imaging system. One set of images were acquired with the 4× objective using the appropriate Hoechst filter settings to acquire a full-well cell count. Another set of images were acquired to evaluate treatment-related phospholipidosis with the 20× objective.
Images were analyzed using custom algorithms created in the IN Cell Workstation software using NBD-PE inclusion count in the cell cytoplasm as and endpoint associated with phospholipidosis. Data were expressed as fold over control, normalized to the DMSO vehicle control response.

BACE-1 = BACE-1 (Homo sapiens (Human), UniProt P56817); conditions: data reported in US′109; read-out: BACE-1 Ki (nM) (ii) Data reported in US′109; cited from earlier work
Sequence of BACE-1 (P56817 46-501, species assumed): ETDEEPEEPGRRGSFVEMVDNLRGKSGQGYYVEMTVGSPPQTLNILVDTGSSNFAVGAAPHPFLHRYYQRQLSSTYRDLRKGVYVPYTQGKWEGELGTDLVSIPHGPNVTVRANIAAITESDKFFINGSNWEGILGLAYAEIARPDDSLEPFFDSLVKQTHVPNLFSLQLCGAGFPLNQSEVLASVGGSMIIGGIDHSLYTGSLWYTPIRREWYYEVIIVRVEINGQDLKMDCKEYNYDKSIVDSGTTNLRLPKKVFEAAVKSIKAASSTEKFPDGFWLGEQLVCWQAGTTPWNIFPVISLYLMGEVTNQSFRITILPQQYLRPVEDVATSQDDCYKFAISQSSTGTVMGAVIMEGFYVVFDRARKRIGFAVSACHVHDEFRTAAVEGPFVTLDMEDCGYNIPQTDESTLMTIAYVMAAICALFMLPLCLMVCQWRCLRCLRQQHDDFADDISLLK

CSF Aβ40 = conditions: cited from earlier work

SMILES: COc1cnc2c(Nc3ccc(F)c([C@]4(C)CS(=O)(=O)C(C)(C)C(N)=N4)c3)nccc2n1 [Ex 47 of WO2014059185, reference compound]
- In Vitro Phospholipidosis Assay: Mean NBD-PE Inclusion Count (Fold over control) (HepG2 cells): 13 Fold over control
- Ki (BACE-1): 2.9 nM
- Aβ reduction in vivo in rat (Δ% CSF Aβ40 @ 10 mpk) (ii) Data reported in US′109 (CSF Aβ40): −82%

SMILES: C[C@@]1(c2nc(Nc3nccc4cc(C#N)cnc34)ncc2F)CS(=O)(=O)[C@@](C)(C2CC2)C(N)=N1 [Example 5, 8-({4-[(3R,6S)-6-cyclopropyl-5-imino-3,6-dimethyl-1,1-dioxidothiomorpholin-3-yl]-5-fluoropyrimidin-2-yl}amino)-1,7-naphthyridine-3-carbonitrile]
- In Vitro Phospholipidosis Assay: Mean NBD-PE Inclusion Count (Fold over control) (HepG2 cells): 1.3 Fold over control

SMILES: COc1cnc2c(Nc3cc([C@]4(C)CS(=O)(=O)[C@@](C)(C5CC5)C(N)=N4)c(F)cn3)nccc2c1 [Example 6, N-{4-[(3R,6S)-6-cyclopropyl-5-imino-3,6-dimethyl-1,1-dioxidothiomorpholin-3-yl]-5-fluoropyridin-2-yl}-3-methoxy-1,7-naphthyridin-8-amine]
- In Vitro Phospholipidosis Assay: Mean NBD-PE Inclusion Count (Fold over control) (HepG2 cells): 3.1 Fold over control

SMILES: COc1cnc2c(Nc3ccc(F)c([C@]4(C)CS(=O)(=O)[C@@](C)(C5CC5)C(N)=N4)c3)ncnc2n1 [Example 22, (2S,5R)-2-cyclopropyl-5-(2-fluoro-5-((7-methoxypteridin-4-yl)amino)phenyl)-3-imino-2,5-dimethylthiomorpholine 1,1-dioxide]
- In Vitro Phospholipidosis Assay: Mean NBD-PE Inclusion Count (Fold over control) (HepG2 cells): 0.9 Fold over control
